In patent publication US20260078103A1, “ISOQUINOLONES AS PI3K INHIBITORS” (OnKure, Inc., priority 2022, published 2026):

Tests used:
Type in all cases: cell-based
[1] = test system: T47D cells expressing mutant PI3Ka (H1047R); assay: In vitro cell proliferation, T47D cells (CellTiter-Glo); settings: Homo sapiens, T47D, 72 h, inhibition of proliferation, read-out: Avg T-47D EC50
Method in brief: (§1)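 Proliferation was read by CellTiter-Glo luminescence after 72 h of exposure to 10-point compound dilutions at 37 °C and 5% CO2. T47D (RPMI, 10% FBS, insulin 0.2 units/mL) and SKBR3 (McCoys 5a, 10% FBS) cells were seeded at 1,500 cells/well. EC50 was fitted from inhibition relative to DMSO and 10 uM Alpelisib.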

[2] = test system: SKBR3 cells express WT PI3Ka; assay: In vitro cell proliferation, SKBR3 cells (CellTiter-Glo); settings: Homo sapiens, SK-BR-3, 72 h, inhibition of proliferation
Method in brief: as §1

[3] = test system: phosphorylation of AKT (pAKT) in T47D cells expressing mutant PI3Ka (H1047R); assay: In vitro cell pAKT (Ser473) HTRF, T47D cells; settings: Homo sapiens, T47D, 6 h, cellular pAKT, T47D cells, mutant PI3Ka (H1047R), 6 hours; read-out: Avg T-47D IC50
Method in brief: (§2)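 pAKT (Ser473) was quantified by HTRF in lysates from cells exposed 6 h at 37 °C to 10-point compound series, with T47D in insulin-supplemented RPMI/10% FBS and SKBR3 in McCoy's 5a/10% FBS. Controls: 0.1% DMSO (high) and 10 uM alpelisib (low). IC50 from sigmoidal curve fitting.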

[4] = test system: phosphorylation of AKT (pAKT) in SKBR3 cells express WT PI3Ka; assay: In vitro cell pAKT (Ser473) HTRF, SKBR3 cells; settings: Homo sapiens, SK-BR-3, 6 h, cellular pAKT
Method in brief: as §2

| SMILES | EC50 [1] | EC50 [2] | IC50 [3] | IC50 [4] |
| --- | --- | --- | --- | --- |
| Cc1cc([C@@H](C)Nc2cccc(F)c2C(=O)O)c2cc(N3CCN(c4cc(C)ncn4)CC3)n(C)c(=O)c2c1 [Example 328] | 500 to 2000 nM | 2000 to 15000 nM | 500 to 2000 nM | > 15000 nM |
| Cc1cc([C@@H](C)Nc2ccc(Cl)nc2C(=O)O)c2cc(-c3cnc(C(C)C)nc3)n(C)c(=O)c2c1 [Example 329] | 1 to 500 nM | 2000 to 15000 nM | 1 to 500 nM | 2000 to 15000 nM |
| Cc1cc([C@@H](C)Nc2ccccc2C(=O)O)c2cc(-c3ccc4c(c3)OC(F)(F)O4)n(C)c(=O)c2c1 [Example 330] | 500 to 2000 nM | > 15000 nM | 1 to 500 nM | > 15000 nM |
| Cc1cc([C@@H](C)Nc2ccccc2C(=O)O)c2cc(-c3ccc(C4(C#N)CC4)nc3)n(C)c(=O)c2c1 [Example 331] | 1 to 500 nM | > 15000 nM | 1 to 500 nM | > 15000 nM |
| Cc1cc([C@@H](C)Nc2ccccc2C(=O)O)c2cc(OCC(F)(F)F)n(C)c(=O)c2c1 [Example 332] | 500 to 2000 nM | > 15000 nM | 1 to 500 nM | > 15000 nM |
| Cc1cc([C@@H](C)Nc2ccccc2C(=O)O)c2cc(OCC3(C)CC3)n(C)c(=O)c2c1 [Example 333] | 1 to 500 nM | > 15000 nM | 1 to 500 nM | > 15000 nM |
| Cc1cc([C@@H](C)Nc2ccccc2C(=O)O)c2cc(OCc3ccc(C)nc3)n(C)c(=O)c2c1 [Example 334] | 1 to 500 nM | > 15000 nM | 1 to 500 nM | > 15000 nM |
| Cc1cc([C@@H](C)Nc2ccccc2C(=O)O)c2cc(OCc3ccccn3)n(C)c(=O)c2c1 [Example 335] | 500 to 2000 nM | > 15000 nM | 1 to 500 nM | > 15000 nM |
| Cc1cc([C@@H](C)Nc2ccc(Cl)nc2C(=O)O)c2cc(N3CCN(CC(F)(F)F)CC3)n(C)c(=O)c2c1 [Example 336] | 1 to 500 nM | 2000 to 15000 nM | 1 to 500 nM | 2000 to 15000 nM |
| CC(C)c1ncc(-c2cc3c([C@@H](C)Nc4ccccc4C(=O)O)cc(Cl)cc3c(=O)n2C)cn1 [Example 337] | 1 to 500 nM | > 15000 nM | 1 to 500 nM | > 15000 nM |
| Cc1cc([C@@H](C)Nc2ccccc2C(=O)O)c2cc(-c3cccc(C(F)F)n3)n(C)c(=O)c2c1 [Example 338] | 1 to 500 nM | 2000 to 15000 nM | 1 to 500 nM | > 15000 nM |
| Cc1cc([C@@H](C)Nc2ccccc2C(=O)O)c2cc(OC3CC3)n(C)c(=O)c2c1 [Example 339] | 500 to 2000 nM | > 15000 nM | 1 to 500 nM | > 15000 nM |
| Cc1cc([C@@H](C)Nc2ccccc2C(=O)O)c2cc(N3CCN(c4nccs4)CC3)n(C)c(=O)c2c1 [Example 340] | 1 to 500 nM | > 15000 nM | 1 to 500 nM | 2000 to 15000 nM |
| Cc1cc([C@@H](C)Nc2ccccc2C(=O)O)c2cc(-c3cnc(C(F)F)nc3)n(C)c(=O)c2c1 [Example 341] | 1 to 500 nM | > 15000 nM | 1 to 500 nM | > 15000 nM |
| Cc1cc([C@@H](C)Nc2ccccc2C(=O)O)c2cc(OCc3ccnc(C)c3)n(C)c(=O)c2c1 [Example 342] | 1 to 500 nM | > 15000 nM | 1 to 500 nM | > 15000 nM |
| Cc1cc([C@@H](C)Nc2cccc(F)c2C(=O)O)c2cc(N3CCN(c4ccc(C)nc4C)CC3)n(C)c(=O)c2c1 [Example 343] | 1 to 500 nM | 2000 to 15000 nM | 1 to 500 nM | 2000 to 15000 nM |
| C[C@@H](Nc1ccccc1C(=O)O)c1cc(F)cc2c(=O)n(C)c(-c3cnc(C4CC4)s3)cc12 [Example 344] | 1 to 500 nM | > 15000 nM | 1 to 500 nM | > 15000 nM |
